Results as given in patent US20110207751A1, “HETEROCYCLIC COMPOUNDS AND USES AS ANTICANCER AGENTS” (priority 2010, published 2011).
Structures can show the parent of a compound that is named as a salt.

Legend:
[1] = tested on: SW620 cells (human colon cancer cell line); experiment: Inhibition of cell proliferation, xCelligence cell index; type: cell-based; conditions: SW-620, 72 hr post compound treatment, read-out: calculated IC50
Description: The biological activity of compounds disclosed herein was monitored and profiled using the Real-Time Cell Electronic Sensing (RT-CES®) system from ACEA Biosciences, Inc. The RT-CES system utilizes cell-substrate impedance technology to monitor cellular behavior inside tissue culture wells in a microtiter plate format. The technology features in the integration of molecular and cell biology with microelectronics and is based on the electronic detection of biological assay process. […]
For measurement of cell-substrate or cell-electrode impedance using RT-CES technology, microelectrodes having appropriate geometries are fabricated onto the bottom surfaces of microtiter plate or similar device, facing into the wells. […] When there are changes to the biological status of the cells analogue electronic readout signals are measured automatically and in real time, and are converted to digital signals for processing and for analysis. In a RT-CES system, a cell index (arbitrary representation of change in impedance) is automatically derived and provided based on measured electrode impedance values. […]
To quantify cell status based on the measured cell-electrode impedance, a parameter termed Cell Index is derived. Cell Index is a quantitative measure of the status of the cells in an electrode-containing well. […]

[2] = tested on: A549 human lung cancer cells; experiment: Cell Death Detection ELISA, apoptosis; type: cell-based; conditions: 37 nM, 24 hr, 48 hr, 72 hr
Protocol: To test if COMPOUND O compound induces apoptosis in cancer cells, the A549 human lung cancer cells were treated with 37 nM COMPOUND O and 37 nM paclitaxel. Cell apoptosis and death detection was measured by Cell Death Detection ELISA kit (Roche Applied Sciences), according to the assay protocol from the kit. Briefly, 5000 cells were seeded into each well of the 96-well plate. […] Cells were harvested and lysed 24 hr, 48 hr or 72 hr post drug treatment. Twenty microliters of lysate were removed and transferred to streptavidin-coated microplate and then incubated with anti-histone-biotin and anti-DNA-POD antibodies for 2 hr followed by adding 2,2′-azinobis-3-ethylbenzthiazoline-sulphonic-acid substrate for color development. The plate was measured at an absorbance of 405 and 490 nm in a Beckman Multimode DTX880 plate reader.

[3] = Body weight and animal number of carrier mice, A549 xenograft test; type: in vivo, BALB/c immunodeficient nude mice
Description: To evaluate the in vivo anticancer efficacy of COMPOUND O, A549 human non-small cell lung cancer xenograft models in immunodeficient nude mice was used. The cell line and mice were maintained in the Pharmacology Lab of ACEA Bio (Hangzhou) CO., Ltd. The BALB/c immunodeficient nude mice were purchased from Shanghai SLAC Laboratory Animal, certification number: SCXKA (Shanghai) 2007-0005. The mouse weight was between 21±1 g. Only female mice were used in this study. The numbers of animals tested were as follow: 7-8 for each dose group, 6 for positive control group and 7 for negative control group.
Test Control. For negative control, each mouse was administered orally with the solvent only having the same volume and same concentration as those used in COMPOUND O test, 120 mg/kg once every other day (qod) for 25 days. For positive control, an oral anticancer compound, Etoposide was administered orally at 30 mg/kg qod for 25 days.
Preparation an Administration of Test Compounds. COMPOUND O was dissolved in 25% phospholipid (S75) and 75% polyvinylpyrrolidone (PL-PVP) then further diluted to 8 mg/ml in 0.9% NaCl aqueous solution. Each mouse was administered orally with the compound solution. Different dosages of COMPOUND O (120 mg/kg qod and 160 mg/kg q2*2 (dosing for 2 consecutive days then off for 2 consecutive days) were used in the study.
All used materials including animal food, animal cage, supporting materials and apparatus contacted by animals, were high-pressure sterilized. Nude mice were maintained in laminar flow shelves under SPF condition. After tumor transplantation, mouse weight and tumor size in each compound dosage group were dynamically monitored and plotted. The tumor size was determined by measuring the major axis (a) and minor axis (b) of the tumor, and tumor volume was calculated according to the formula (2) in Example 1.

CCc1ccc(Nc2nc(-c3c(C)nc4sccn34)cs2)cc1 [COMPOUND O, 2-(4-ethylphenyl)amino-4-(6-methylimidazo[2,1-b]thiazol-5-yl)-thiazole monohydrobromide]
IC50 [1]: 2.65 nM | apoptotic signal [2]: strong apoptotic signals (starting from 48 hr post drug treatment) | Animal weight (g) Beginning ([3]; 120 mg/kg ig × 14 qod): 20.77 g | Animal weight (g) end ([3]; 120 mg/kg ig × 14 qod): 16.94 g | Body weight of mice (g) 1 day ([3]; 120 mg/kg ig × 14 qod): 20.77 ± 0.68 g | Body weight of mice (g) 4 day ([3]; 120 mg/kg ig × 14 qod): 20.27 ± 0.83 g | Body weight of mice (g) 8 day ([3]; 120 mg/kg ig × 14 qod): 19.57 ± 1.09 g | Body weight of mice (g) 11 day ([3]; 120 mg/kg ig × 14 qod): 18.20 ± 0.59 g | Body weight of mice (g) 15 day ([3]; 120 mg/kg ig × 14 qod): 17.90 ± 0.61 g | Body weight of mice (g) 18 day ([3]; 120 mg/kg ig × 14 qod): 17.90 ± 1.09 g | Body weight of mice (g) 22 day ([3]; 120 mg/kg ig × 14 qod): 17.21 ± 1.20 g | Body weight of mice (g) 25 day ([3]; 120 mg/kg ig × 14 qod): 17.00 ± 1.29 g | Animal No. end ([3]; 120 mg/kg ig × 14 qod, 7 at beginning): 7/7 | Animal weight (g) Beginning ([3]; 160 mg/kg ig × 11 q2*2): 21.69 g | Animal weight (g) end ([3]; 160 mg/kg ig × 11 q2*2): 17.97 g | Body weight of mice (g) 1 day ([3]; 160 mg/kg ig × 11 q2*2): 21.69 ± 0.66 g | Body weight of mice (g) 4 day ([3]; 160 mg/kg ig × 11 q2*2): 21.20 ± 0.79 g | Body weight of mice (g) 8 day ([3]; 160 mg/kg ig × 11 q2*2): 19.00 ± 1.48 g | Body weight of mice (g) 11 day ([3]; 160 mg/kg ig × 11 q2*2): 17.78 ± 2.11 g | Body weight of mice (g) 15 day ([3]; 160 mg/kg ig × 11 q2*2): 17.43 ± 1.86 g | Body weight of mice (g) 18 day ([3]; 160 mg/kg ig × 11 q2*2): 18.43 ± 0.90 g | Body weight of mice (g) 22 day ([3]; 160 mg/kg ig × 11 q2*2): 18.70 ± 1.04 g | Body weight of mice (g) 25 day ([3]; 160 mg/kg ig × 11 q2*2): 17.97 ± 0.93 g | Animal No. end ([3]; 160 mg/kg ig × 11 q2*2, 8 at beginning): 8/3

COc1cc([C@@H]2c3cc4c(cc3[C@@H](O[C@@H]3O[C@@H]5CO[C@@H](C)O[C@H]5[C@H](O)[C@H]3O)[C@H]3COC(=O)[C@H]23)OCO4)cc(OC)c1O [Etoposide, reference compound]
Animal weight (g) Beginning ([3]; 30 mg/kg ig × 13 qod): 21.30 g | Animal weight (g) end ([3]; 30 mg/kg ig × 13 qod): 18.18 g | Body weight of mice (g) 1 day ([3]; 30 mg/kg ig × 13 qod): 21.30 ± 0.70 g | Body weight of mice (g) 4 day ([3]; 30 mg/kg ig × 13 qod): 19.38 ± 2.22 g | Body weight of mice (g) 8 day ([3]; 30 mg/kg ig × 13 qod): 20.53 ± 1.26 g | Body weight of mice (g) 11 day ([3]; 30 mg/kg ig × 13 qod): 19.62 ± 1.15 g | Body weight of mice (g) 15 day ([3]; 30 mg/kg ig × 13 qod): 19.63 ± 1.63 g | Body weight of mice (g) 18 day ([3]; 30 mg/kg ig × 13 qod): 19.48 ± 2.01 g | Body weight of mice (g) 22 day ([3]; 30 mg/kg ig × 13 qod): 19.10 ± 2.57 g | Body weight of mice (g) 25 day ([3]; 30 mg/kg ig × 13 qod): 18.18 ± 1.86 g | Animal No. end ([3]; 30 mg/kg ig × 13 qod, 6 at beginning): 6/6

CC(=O)O[C@H]1C(=O)[C@@]2(C)[C@H]([C@H](OC(=O)c3ccccc3)[C@]3(O)C[C@H](OC(=O)[C@H](O)[C@@H](NC(=O)c4ccccc4)c4ccccc4)C(C)=C1C3(C)C)[C@]1(OC(C)=O)CO[C@@H]1C[C@@H]2O [paclitaxel]
IC50 [1]: 0.998 nM | apoptotic signal [2]: strong apoptotic signals (starting from 48 hr post drug treatment)
